# In ChEMBL document CHEMBL1131404, “A new strong inhibitor of beta-mannosidase” (Bioorg Med Chem Lett, 1998):
# Key:
# [1] = The compound was tested for its inhibitory activity against alpha-mannosidase using p-nitrophenylmannopyranoside as substrate
# [2] = The compound was tested for its competitive inhibitory activity against Alpha-mannosidase
Km [1],Ki [2],SMILES
570 µM,50 µM,O=[N+]([O-])c1ccc(O/N=C2\OC(CO)C(O)C(O)C2O)c([N+](=O)[O-])c1 (centres undefined)
1200 µM,80 µM,O=C(Nc1ccccc1)O/N=C1\OC(CO)C(O)C(O)C1O (centres undefined)
